Laboratory results published in ChEMBL document CHEMBL5120900, “Structure-Based Discovery of a Series of NSD2-PWWP1 Inhibitors” (J Med Chem, 2022).

Columns and labels:
[1] = target: T1, Histone-lysine N-methyltransferase NSD2 (Homo sapiens, UniProt O96028); assay: Binding affinity to N-terminal His6/Sumo-tagged NSD2 PWWP1 domain (211 to 350 residues) (unknown origin) expressed in Escherichia coli BL21 (DE3) using ATKAARKSAPATGGV-Lys (me)2-KPHRYRPG polypeptide as substrate incubated for 3 hrs by HTRF assay
T1 sequence (O96028 whole entry): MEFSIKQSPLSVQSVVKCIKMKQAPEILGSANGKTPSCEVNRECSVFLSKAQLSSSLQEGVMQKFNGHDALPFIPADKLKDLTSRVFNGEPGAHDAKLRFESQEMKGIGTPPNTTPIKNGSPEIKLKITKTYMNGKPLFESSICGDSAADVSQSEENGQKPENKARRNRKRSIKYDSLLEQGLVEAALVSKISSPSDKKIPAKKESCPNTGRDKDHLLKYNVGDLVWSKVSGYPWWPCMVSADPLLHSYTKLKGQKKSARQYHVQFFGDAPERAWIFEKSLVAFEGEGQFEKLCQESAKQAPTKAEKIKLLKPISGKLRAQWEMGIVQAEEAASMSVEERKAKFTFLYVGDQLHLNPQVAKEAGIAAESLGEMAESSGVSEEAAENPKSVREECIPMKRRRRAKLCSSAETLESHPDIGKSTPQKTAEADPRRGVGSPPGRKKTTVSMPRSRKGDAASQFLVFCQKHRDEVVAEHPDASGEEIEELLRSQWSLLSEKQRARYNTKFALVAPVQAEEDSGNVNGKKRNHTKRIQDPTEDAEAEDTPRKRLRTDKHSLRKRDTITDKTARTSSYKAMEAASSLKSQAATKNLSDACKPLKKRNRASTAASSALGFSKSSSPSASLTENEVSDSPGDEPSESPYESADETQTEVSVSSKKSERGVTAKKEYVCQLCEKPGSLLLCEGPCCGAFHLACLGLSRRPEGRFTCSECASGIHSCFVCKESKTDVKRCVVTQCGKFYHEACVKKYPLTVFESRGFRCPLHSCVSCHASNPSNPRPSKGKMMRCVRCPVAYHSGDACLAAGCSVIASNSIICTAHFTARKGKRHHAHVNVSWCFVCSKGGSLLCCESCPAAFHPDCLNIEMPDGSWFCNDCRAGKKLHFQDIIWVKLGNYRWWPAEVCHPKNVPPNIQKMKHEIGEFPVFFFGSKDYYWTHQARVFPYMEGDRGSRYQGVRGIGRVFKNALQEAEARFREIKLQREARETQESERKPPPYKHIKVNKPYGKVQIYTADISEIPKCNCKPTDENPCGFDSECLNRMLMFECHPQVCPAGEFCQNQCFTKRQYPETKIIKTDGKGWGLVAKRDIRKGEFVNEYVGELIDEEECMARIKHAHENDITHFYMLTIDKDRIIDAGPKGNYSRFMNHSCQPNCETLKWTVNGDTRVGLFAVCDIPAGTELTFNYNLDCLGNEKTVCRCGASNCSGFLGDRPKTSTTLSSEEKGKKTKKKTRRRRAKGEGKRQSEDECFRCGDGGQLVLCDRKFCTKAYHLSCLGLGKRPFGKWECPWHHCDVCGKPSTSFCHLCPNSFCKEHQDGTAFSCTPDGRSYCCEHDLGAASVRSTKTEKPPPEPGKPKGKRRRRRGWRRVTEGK

[2] = target: T2, Histone-lysine N-methyltransferase NSD3 (Homo sapiens, UniProt Q9BZ95); assay: Binding affinity to NSD3 (unknown origin) assessed as dissociation constant
T2 sequence (Q9BZ95 whole entry): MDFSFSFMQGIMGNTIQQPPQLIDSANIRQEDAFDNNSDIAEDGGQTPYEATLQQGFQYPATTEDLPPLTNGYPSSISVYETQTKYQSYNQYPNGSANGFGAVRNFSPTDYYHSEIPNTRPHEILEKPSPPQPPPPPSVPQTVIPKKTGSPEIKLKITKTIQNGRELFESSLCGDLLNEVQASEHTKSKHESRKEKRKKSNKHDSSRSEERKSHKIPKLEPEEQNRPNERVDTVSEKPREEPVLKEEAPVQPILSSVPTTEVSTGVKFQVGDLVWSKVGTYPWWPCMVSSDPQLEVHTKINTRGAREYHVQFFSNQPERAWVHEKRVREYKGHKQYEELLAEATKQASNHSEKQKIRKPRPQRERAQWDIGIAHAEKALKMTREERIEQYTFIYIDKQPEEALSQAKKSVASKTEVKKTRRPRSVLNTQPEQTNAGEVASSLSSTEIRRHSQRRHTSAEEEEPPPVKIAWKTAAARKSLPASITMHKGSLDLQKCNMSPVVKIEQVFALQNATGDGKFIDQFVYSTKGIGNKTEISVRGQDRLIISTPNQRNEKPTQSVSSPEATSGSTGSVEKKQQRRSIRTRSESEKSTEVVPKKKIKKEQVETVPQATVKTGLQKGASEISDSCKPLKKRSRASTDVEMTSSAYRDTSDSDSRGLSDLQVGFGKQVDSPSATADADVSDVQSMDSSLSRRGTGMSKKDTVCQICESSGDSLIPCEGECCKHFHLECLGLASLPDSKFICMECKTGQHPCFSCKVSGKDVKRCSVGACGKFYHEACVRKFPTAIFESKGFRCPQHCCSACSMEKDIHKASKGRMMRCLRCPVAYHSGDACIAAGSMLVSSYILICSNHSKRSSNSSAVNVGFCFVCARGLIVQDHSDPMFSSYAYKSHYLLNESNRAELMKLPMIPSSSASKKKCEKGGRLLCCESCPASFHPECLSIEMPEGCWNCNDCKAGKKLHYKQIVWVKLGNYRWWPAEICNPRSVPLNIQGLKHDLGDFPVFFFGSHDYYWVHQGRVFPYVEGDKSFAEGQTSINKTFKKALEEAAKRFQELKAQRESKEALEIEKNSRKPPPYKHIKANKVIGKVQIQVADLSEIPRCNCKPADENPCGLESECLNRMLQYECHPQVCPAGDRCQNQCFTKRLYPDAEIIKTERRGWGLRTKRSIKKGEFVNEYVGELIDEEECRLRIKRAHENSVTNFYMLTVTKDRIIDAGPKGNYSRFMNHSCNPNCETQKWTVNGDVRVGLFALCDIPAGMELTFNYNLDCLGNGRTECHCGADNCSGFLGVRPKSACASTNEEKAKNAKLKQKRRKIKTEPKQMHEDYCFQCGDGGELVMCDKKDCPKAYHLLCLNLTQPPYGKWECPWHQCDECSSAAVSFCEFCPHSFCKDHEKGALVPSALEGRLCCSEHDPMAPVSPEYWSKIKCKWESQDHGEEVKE

Compound	IC50 [1]	Kd [2]
Cc1cc(CNC(=O)OC(C)(C)C)cc(C)c1-c1ncn(C)c1-c1ccc(C#N)c2ccccc12	1.67 µM	–
Cc1cc(NC(=O)OC(C)(C)C)cc(C)c1-c1ncn(C)c1-c1ccc(C#N)c2ccccc12	> 25 µM	–
Cc1cc(CN2CCCC2)cc(C)c1-c1ncn(C)c1-c1ccc(C#N)c2ccccc12	2.07 µM	–
Cc1cc(CNC2CC2)cc(C)c1-c1ncn(C)c1-c1ccc(C#N)c2ccccc12	0.43 µM	–
Cc1cc(CN2CCC(N(C)C)C2)cc(C)c1-c1ncn(C)c1-c1ccc(C#N)c2ccccc12 (configuration not stated)	2 µM	–
Cc1cc(CN)cc(C)c1-c1ncn(C)c1-c1ccc(C#N)cc1	0.57 µM	–
Cn1cnc(-c2ccc(CN)cc2F)c1-c1ccc(C#N)cc1	11.2 µM	–
Cc1cc(CN2CCOCC2)cc(C)c1-c1ncn(C)c1-c1ccc(C#N)c2ccccc12	3.84 µM	–
Cc1cc(CN)cc(C)c1-c1ncn(C)c1-c1ccc(C#N)c(C(F)(F)F)c1	15.4 µM	–
Cc1cc(CN)ccc1-c1ncn(C)c1-c1ccc(C#N)cc1	4.68 µM	–
Cc1cc(CN2CCNCC2)cc(C)c1-c1ncn(C)c1-c1ccc(C#N)c2ccccc12	1.89 µM	–
Cc1cc(CNCCN)cc(C)c1-c1ncn(C)c1-c1ccc(C#N)c2ccccc12	0.62 µM	–
Cc1cc(CN2CCC(O)C2)cc(C)c1-c1ncn(C)c1-c1ccc(C#N)c2ccccc12 (configuration not stated)	0.52 µM	–
Cn1cnc(-c2ccc(CN)cc2Cl)c1-c1ccc(C#N)cc1	6.11 µM	–
CCNCc1cc(C)c(-c2ncn(C)c2-c2ccc(C#N)c3ccccc23)c(C)c1	0.7 µM	–
Cn1cnc(-c2ccc(CN)cc2C(F)(F)F)c1-c1ccc(C#N)cc1	6.01 µM	–
CNc1cc(-c2c(-c3c(C)cc(CN)cc3C)ncn2C)ccc1C#N	> 20 µM	–
CCC(=O)c1cc(C)c(-c2ncn(C)c2-c2ccc(C#N)c3ccccc23)c(C)c1	> 22 µM	–
Cc1cc(CNC(C)(C)C)cc(C)c1-c1ncn(C)c1-c1ccc(C#N)c2ccccc12	0.64 µM	–

Compound	IC50 [1]	Kd [2]
Cc1cc(CN2CCCCC2)cc(C)c1-c1ncn(C)c1-c1ccc(C#N)c2ccccc12	1.49 µM	–
Cc1cc(C=O)cc(C)c1-c1ncn(C)c1-c1ccc(C#N)c2ccccc12	> 21 µM	–
COc1cc(CN)ccc1-c1ncn(C)c1-c1ccc(C#N)cc1	12 µM	–
Cc1cc(CO)cc(C)c1-c1ncn(C)c1-c1ccc(C#N)c2ccccc12	13.8 µM	–
Cc1cc(CN)cc(C)c1-c1ncn(C)c1-c1ccc(C#N)c(Cl)c1	5.03 µM	–
Cn1cnc(-c2ccc(CN)cc2)c1-c1ccc(C#N)cc1	13.9 µM	–
N#Cc1ccc(C(=O)N(Cc2cccs2)C2CC2)cc1	–	0.091 µM
Cc1cc(CN)cc(C)c1-c1ncn(C)c1-c1ccc(C#N)c(N)c1	8.78 µM	–
Cc1cc(CN)cc(C)c1-c1ncn(C)c1-c1ccc(C#N)c(F)c1	2.91 µM	–
Cc1cc(CN2CCN(C(=O)OC(C)(C)C)CC2)cc(C)c1-c1ncn(C)c1-c1ccc(C#N)c2ccccc12	8.07 µM	–
Cc1cc(CN)cc(C)c1-c1ncn(C)c1-c1ccc(C#N)c2ccccc12	0.52 µM	–
Cc1cc(CN2CCC(NC(=O)OC(C)(C)C)CC2)cc(C)c1-c1ncn(C)c1-c1ccc(C#N)c2ccccc12	8.05 µM	–
CCC(O)c1cc(C)c(-c2ncn(C)c2-c2ccc(C#N)c3ccccc23)c(C)c1 (configuration not stated)	> 24 µM	–
Cc1cc(N)cc(C)c1-c1ncn(C)c1-c1ccc(C#N)c2ccccc12	10.6 µM	–
COc1cc(CN)cc(OC)c1-c1ncn(C)c1-c1ccc(C#N)cc1	4.44 µM	–
COc1cc(-c2c(-c3c(C)cc(CN)cc3C)ncn2C)ccc1C#N	10.9 µM	–
Cc1cc(CN)cc(C)c1-c1ncn(C)c1-c1ccc(C#N)c2ncccc12	1.58 µM	–
Cc1cc(C#N)cc(C)c1-c1ncn(C)c1-c1ccc(C#N)c2ccccc12	> 20 µM	–
